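A five-concentration, 48-hour dose response in 96-well plates underlies each endpoint, interpolated linearly between surrounding concentrations. The concentration for 50% growth inhibition is given as GI50. Definition used: TGI = concentration required for complete inhibition of growth.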
Assays:
Test in all cases: inhibition of tumour cell growth, NCI panel, 48 h
A498 renal = test system: A498 renal
A549 NSCLC = test system: A549 NSCLC
ACHN renal = test system: ACHN renal
CAKI-1 renal = test system: CAKI-1 renal
K-562 leukemia = test system: K-562 leukemia
NCI-H226 lung = test system: NCI-H226 lung
OVCAR-5 ovarian = test system: OVCAR-5 ovarian
RPMI-8226 leukemia = test system: RPMI-8226 leukemia
SNB-75 CNS = test system: SNB-75 CNS
UO-31 renal = test system: UO-31 renal

With `CCCCCCCCCCCCCC[n+]1cccc(C(N)=O)c1` the GI50 (A498 renal) was 5.57 µM, the TGI (A498 renal) was 29.2 µM and the GI50 (A549 NSCLC) was 4.08 µM. For the same molecule, the TGI (A549 NSCLC) was 18.4 µM, the GI50 (ACHN renal) was 3.46 µM and the TGI (ACHN renal) was 17.9 µM. It also gave a GI50 (CAKI-1 renal) of 0.964 µM, a TGI (CAKI-1 renal) of 6.52 µM and a GI50 (K-562 leukemia) of 1.88 µM. It also gave a TGI (K-562 leukemia) of 6.53 µM, a GI50 (NCI-H226 lung) of 1.63 µM and a TGI (NCI-H226 lung) of 5.11 µM. For the same molecule, the GI50 (OVCAR-5 ovarian) was 1.62 µM, the TGI (OVCAR-5 ovarian) was 6.25 µM and the GI50 (RPMI-8226 leukemia) was 1.87 µM. It also gave a TGI (RPMI-8226 leukemia) of 4.44 µM, a GI50 (SNB-75 CNS) of 1.06 µM and a TGI (SNB-75 CNS) of 2.57 µM. The GI50 (UO-31 renal) was 9.42 µM and the TGI (UO-31 renal) was 26.3 µM.
In the case of `Nc1cc(-c2ccc(Cl)cc2)nn1-c1nnc(/C=C/c2ccco2)c(=O)[nH]1`, the GI50 (A498 renal) is reported as 1.78 µM, the TGI (A498 renal) is reported as 6.9 µM and the GI50 (A549 NSCLC) is reported as 3.46 µM. It also gave a TGI (A549 NSCLC) of 22.2 µM, a GI50 (ACHN renal) of 3.09 µM and a TGI (ACHN renal) of 17.7 µM. It also gave a GI50 (CAKI-1 renal) of 0.842 µM, a TGI (CAKI-1 renal) of 7.04 µM and a GI50 (K-562 leukemia) of 2.98 µM. The TGI (K-562 leukemia) was > 48 µM, the GI50 (NCI-H226 lung) was 10.1 µM and the TGI (NCI-H226 lung) was 67.4 µM. For the same molecule, the GI50 (OVCAR-5 ovarian) was 10.9 µM, the TGI (OVCAR-5 ovarian) was > 90.5 µM and the GI50 (RPMI-8226 leukemia) was 1.54 µM. The TGI (RPMI-8226 leukemia) was > 48.1 µM, the GI50 (SNB-75 CNS) was 12.9 µM and the TGI (SNB-75 CNS) was 41.4 µM. The GI50 (UO-31 renal) was 2.41 µM and the TGI (UO-31 renal) was 22.6 µM.
For `CC(C)(C)NCC(COc1ccc([N+](=O)[O-])cc1)OP(c1ccccc1)c1ccccc1` (stereo not given), the TGI (A498 renal) was > 100 µM, the TGI (A549 NSCLC) was > 100 µM and the TGI (ACHN renal) was > 100 µM. The TGI (CAKI-1 renal) was > 100 µM, the TGI (K-562 leukemia) was > 100 µM and the TGI (NCI-H226 lung) was 94.7 µM. For the same molecule, the TGI (OVCAR-5 ovarian) was > 100 µM, the TGI (RPMI-8226 leukemia) was 35.3 µM and the TGI (SNB-75 CNS) was > 100 µM. The TGI (UO-31 renal) was > 100 µM.
In the case of `O=C1/C(=C/c2ccc([N+](=O)[O-])cc2)COc2ccc(O)cc21`, the GI50 (A498 renal) is reported as 4.52 µM, the TGI (A498 renal) is reported as > 100 µM and the GI50 (A549 NSCLC) is reported as 78 µM. The TGI (A549 NSCLC) was > 100 µM, the GI50 (ACHN renal) was 2.02 µM and the TGI (ACHN renal) was 4.12 µM. For the same molecule, the GI50 (CAKI-1 renal) was 3.7 µM, the TGI (CAKI-1 renal) was 19.3 µM and the GI50 (K-562 leukemia) was 2.28 µM. The TGI (K-562 leukemia) was > 100 µM, the GI50 (NCI-H226 lung) was 15.3 µM and the TGI (NCI-H226 lung) was 72.4 µM. For the same molecule, the GI50 (OVCAR-5 ovarian) was 5.97 µM, the TGI (OVCAR-5 ovarian) was 33.2 µM and the GI50 (RPMI-8226 leukemia) was 0.326 µM. The TGI (RPMI-8226 leukemia) was 1.65 µM, the GI50 (SNB-75 CNS) was > 100 µM and the TGI (SNB-75 CNS) was > 100 µM. For the same molecule, the GI50 (UO-31 renal) was 1.45 µM and the TGI (UO-31 renal) was 3.6 µM.
`Cc1c(C)c(CC(=O)N2CC2)c(C)c(C)c1CC(=O)N1CC1` showed a TGI (A498 renal) of 32.1 µM, a TGI (A549 NSCLC) of 50.3 µM and a TGI (ACHN renal) of 25.7 µM. The TGI (CAKI-1 renal) was 32.4 µM, the TGI (K-562 leukemia) was > 92.7 µM and the TGI (NCI-H226 lung) was 43.6 µM. For the same molecule, the TGI (OVCAR-5 ovarian) was > 83.8 µM, the TGI (RPMI-8226 leukemia) was 55.5 µM and the TGI (SNB-75 CNS) was 50.8 µM. For the same molecule, the TGI (UO-31 renal) was 38.7 µM.
`O=C1c2ccccc2-c2c1c1c(NCCCO)nc3ccccc3c1n2Cc1ccccc1` showed a GI50 (A498 renal) of 21.6 µM, a TGI (A498 renal) of 48.6 µM and a GI50 (A549 NSCLC) of 29.7 µM. For the same molecule, the TGI (A549 NSCLC) was 75.5 µM, the GI50 (ACHN renal) was 21.4 µM and the TGI (ACHN renal) was 59.4 µM. For the same molecule, the GI50 (CAKI-1 renal) was 18.6 µM, the TGI (CAKI-1 renal) was 38.4 µM and the GI50 (K-562 leukemia) was 15.5 µM. For the same molecule, the TGI (K-562 leukemia) was 28.8 µM, the GI50 (NCI-H226 lung) was 41.3 µM and the TGI (NCI-H226 lung) was > 100 µM. The GI50 (OVCAR-5 ovarian) was 18 µM, the TGI (OVCAR-5 ovarian) was 39.9 µM and the GI50 (RPMI-8226 leukemia) was 14.3 µM. For the same molecule, the TGI (RPMI-8226 leukemia) was 27.3 µM, the GI50 (SNB-75 CNS) was 20.7 µM and the TGI (SNB-75 CNS) was 39.8 µM. It also gave a GI50 (UO-31 renal) of 24.6 µM and a TGI (UO-31 renal) of 73.7 µM.
In the case of `Cc1ccc(C)c(N2C(=O)C(=O)C(c3nc4ccccc4s3)C(=Nc3cccc4c(=O)[nH][nH]c(=O)c34)C2=O)c1` (stereo not given), the TGI (A498 renal) is reported as > 100 µM, the TGI (A549 NSCLC) is reported as > 100 µM and the TGI (ACHN renal) is reported as > 100 µM. The TGI (CAKI-1 renal) was > 100 µM, the TGI (K-562 leukemia) was > 100 µM and the TGI (NCI-H226 lung) was > 100 µM. The TGI (OVCAR-5 ovarian) was > 100 µM, the TGI (RPMI-8226 leukemia) was > 100 µM and the TGI (SNB-75 CNS) was > 100 µM. For the same molecule, the TGI (UO-31 renal) was > 100 µM.
With `O=C1[C@H]2ON(c3ccccc3)C(c3ccco3)[C@H]2C(=O)N1c1ccc(Cc2ccc(N3C(=O)[C@@H]4ON(c5ccccc5)C(c5ccco5)[C@@H]4C3=O)cc2)cc1` (stereo not given in full) the TGI (A498 renal) was > 100 µM, the TGI (A549 NSCLC) was > 100 µM and the TGI (ACHN renal) was > 100 µM. The TGI (CAKI-1 renal) was > 100 µM, the TGI (K-562 leukemia) was > 100 µM and the TGI (NCI-H226 lung) was > 100 µM. The TGI (OVCAR-5 ovarian) was > 100 µM, the TGI (RPMI-8226 leukemia) was > 100 µM and the TGI (SNB-75 CNS) was > 100 µM. For the same molecule, the TGI (UO-31 renal) was > 100 µM.

From PubChem BioAssay (NCI)
